Numbers after ± are expanded uncertainties.
Assay: activity coefficient (dimensionless); of the first substance listed, at infinite dilution; xn = mol fraction of the nth substance listed
Conditions: 101.33 kPa, Liquid, Chromatography, x1 = 0

| SMILES | activity coefficient (358.15 K) | activity coefficient (368.15 K) | activity coefficient (378.15 K) | activity coefficient (388.15 K) | activity coefficient (398.15 K) | activity coefficient (408.15 K) |
| --- | --- | --- | --- | --- | --- | --- |
| CCC(C)(C)C [2,2-dimethylbutane] + CCCC[P+](CCCC)(CCCC)CCCC.O=S(=O)([N-]S(=O)(=O)C(F)(F)F)C(F)(F)F | 3.93 ± 0.27 | 3.98 ± 0.27 | 4.01 ± 0.27 | 4.05 ± 0.28 | 4.08 ± 0.28 | 4.12 ± 0.28 |
| CCCC(=O)OC [methyl butanoate] + CCCC[P+](CCCC)(CCCC)CCCC.O=S(=O)([N-]S(=O)(=O)C(F)(F)F)C(F)(F)F | 0.946 ± 0.06 | 0.989 ± 0.062 | 1.03 ± 0.06 | 1.08 ± 0.07 | 1.12 ± 0.07 | 1.17 ± 0.07 |
| CCC(C)(C)OC [2-methoxy-2-methylbutane] + CCCC[P+](CCCC)(CCCC)CCCC.O=S(=O)([N-]S(=O)(=O)C(F)(F)F)C(F)(F)F | 2 ± 0.14 | 2.07 ± 0.14 | 2.13 ± 0.14 | 2.2 ± 0.15 | 2.26 ± 0.15 | 2.32 ± 0.16 |
| C1CCCCCCC1 [cyclooctane] + CCCC[P+](CCCC)(CCCC)CCCC.O=S(=O)([N-]S(=O)(=O)C(F)(F)F)C(F)(F)F | 4.08 ± 0.28 | 4.04 ± 0.28 | 4 ± 0.27 | 3.97 ± 0.27 | 3.94 ± 0.27 | 3.91 ± 0.27 |
| CCCC(C)=O [pentan-2-one] + CCCC[P+](CCCC)(CCCC)CCCC.O=S(=O)([N-]S(=O)(=O)C(F)(F)F)C(F)(F)F | 0.62 ± 0.043 | 0.651 ± 0.045 | 0.682 ± 0.046 | 0.714 ± 0.048 | 0.744 ± 0.049 | 0.774 ± 0.051 |
| C=CCCCCCCCC [1-decene] + CCCC[P+](CCCC)(CCCC)CCCC.O=S(=O)([N-]S(=O)(=O)C(F)(F)F)C(F)(F)F | 7.54 ± 0.51 | 7.48 ± 0.51 | 7.41 ± 0.51 | 7.36 ± 0.5 | 7.3 ± 0.5 | 7.25 ± 0.49 |
| CCCCCCC [heptane] + CCCC[P+](CCCC)(CCCC)CCCC.O=S(=O)([N-]S(=O)(=O)C(F)(F)F)C(F)(F)F | 5.4 ± 0.37 | 5.38 ± 0.37 | 5.37 ± 0.37 | 5.35 ± 0.36 | 5.34 ± 0.36 | 5.33 ± 0.36 |
| CC(C)c1ccccc1 [isopropylbenzene] + CCCC[P+](CCCC)(CCCC)CCCC.O=S(=O)([N-]S(=O)(=O)C(F)(F)F)C(F)(F)F | 1.92 ± 0.13 | 1.97 ± 0.13 | 2.02 ± 0.14 | 2.07 ± 0.14 | 2.12 ± 0.14 | 2.17 ± 0.15 |
| CCC(C)O (stereo not given) [butan-2-ol] + CCCC[P+](CCCC)(CCCC)CCCC.O=S(=O)([N-]S(=O)(=O)C(F)(F)F)C(F)(F)F | 1.53 ± 0.1 | 1.49 ± 0.1 | 1.46 ± 0.1 | 1.43 ± 0.09 | 1.4 ± 0.09 | 1.37 ± 0.09 |
| CC(C)CC(C)(C)C [2,2,4-trimethylpentane] + CCCC[P+](CCCC)(CCCC)CCCC.O=S(=O)([N-]S(=O)(=O)C(F)(F)F)C(F)(F)F | 5.43 ± 0.37 | 5.42 ± 0.37 | 5.41 ± 0.37 | 5.4 ± 0.37 | 5.39 ± 0.37 | 5.39 ± 0.37 |
| C=CCCCC [hex-1-ene] + CCCC[P+](CCCC)(CCCC)CCCC.O=S(=O)([N-]S(=O)(=O)C(F)(F)F)C(F)(F)F | 3.15 ± 0.21 | 3.2 ± 0.22 | 3.24 ± 0.22 | 3.28 ± 0.22 | 3.32 ± 0.23 | 3.35 ± 0.23 |
| CCCOCCC [dipropyl ether] + CCCC[P+](CCCC)(CCCC)CCCC.O=S(=O)([N-]S(=O)(=O)C(F)(F)F)C(F)(F)F | 2.73 ± 0.19 | 2.78 ± 0.19 | 2.83 ± 0.19 | 2.88 ± 0.2 | 2.93 ± 0.2 | 2.98 ± 0.2 |
| CC(C)=O [acetone] + CCCC[P+](CCCC)(CCCC)CCCC.O=S(=O)([N-]S(=O)(=O)C(F)(F)F)C(F)(F)F | 0.503 ± 0.038 | 0.524 ± 0.039 | 0.545 ± 0.04 | 0.567 ± 0.041 | 0.587 ± 0.042 | 0.607 ± 0.042 |
| C#CCCCCCC [1-octyne] + CCCC[P+](CCCC)(CCCC)CCCC.O=S(=O)([N-]S(=O)(=O)C(F)(F)F)C(F)(F)F | 2.79 ± 0.19 | 2.87 ± 0.2 | 2.93 ± 0.2 | 3 ± 0.2 | 3.07 ± 0.21 | 3.13 ± 0.21 |
| C#CCCCCC [1-heptyne] + CCCC[P+](CCCC)(CCCC)CCCC.O=S(=O)([N-]S(=O)(=O)C(F)(F)F)C(F)(F)F | 2.28 ± 0.16 | 2.35 ± 0.16 | 2.42 ± 0.16 | 2.48 ± 0.17 | 2.55 ± 0.17 | 2.62 ± 0.18 |
